The values that follow come from ChEMBL document CHEMBL3352258 (J Med Chem, 2014).

The nature of data set [1]: Half life in Sprague-Dawley rat at 5 mg/kg, po. Format: ADME, organism-based. On the set-up: dose 5 mg/kg, route oral. Conditions: Sprague-Dawley, in vivo.
Data set [2] can be described thus: Solubility of the compound at pH 6.5. Format: physicochemical. As to conditions: buffer.
Data set [3] is described as follows: Half life in mouse. Type of data set: ADME, organism-based. Conditions: in vivo.
The nature of data set [4]: Half life in human liver microsomes. Type of data set: ADME. (Microsomes from liver hold many membrane-bound enzymes, among them those of drug oxidation.)
A short description of data set [5]: Solubility of the compound in 50% PEG400/ 50% PBS solution. Format: physicochemical.
For data set [6], the target named is T1, Glucose-dependent insulinotropic receptor (Homo sapiens, UniProt Q8TDV5).
T1 sequence (Q8TDV5 whole entry): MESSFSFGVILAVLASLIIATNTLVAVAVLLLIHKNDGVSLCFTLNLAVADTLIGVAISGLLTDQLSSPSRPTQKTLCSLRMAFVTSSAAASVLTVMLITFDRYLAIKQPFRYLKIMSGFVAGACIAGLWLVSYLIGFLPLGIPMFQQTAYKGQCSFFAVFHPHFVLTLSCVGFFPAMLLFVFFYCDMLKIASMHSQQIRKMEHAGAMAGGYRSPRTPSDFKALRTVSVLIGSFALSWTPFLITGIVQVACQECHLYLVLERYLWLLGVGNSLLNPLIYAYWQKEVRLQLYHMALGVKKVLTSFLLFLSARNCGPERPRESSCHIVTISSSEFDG
The data set is described as follows: Agonist activity at human GPR119.

Data set [7] addresses T2, Glucose-dependent insulinotropic receptor (Homo sapiens) (UniProt Q8TDV5).
T2 sequence (whole entry): T1 sequence (Q8TDV5 whole entry)
The data set is described as follows: Intrinsic activity at human GPR119 relative to control.

In brackets after ≈: the same amount, converted by molar mass. Where only a bound is given, the exact number is not on record here.

As for `CS(=O)(=O)c1ccc(-n2cc(Cl)c(OC3CCN(c4ncc(Cl)cn4)CC3)cc2=O)cc1`, the half-life (usually the time in which the quantity being followed falls by half) in data set [1] was 9 min; in data set [3], 11 min; in data set [4] it was 59 min. Besides, the values for the solubility in data set [2] and in data set [5] were under 1 µg/mL and 7 µg/mL (≈ 14.1 µM), respectively. The EC50 (as a rule, the midpoint of the concentration-response curve) in data set [6] was 0.018 µM.
For `CC(C)OC(=O)N1[C@@H]2CC[C@@H]1CC(Oc1ccn(-c3ccc(S(C)(=O)=O)cc3)c(=O)c1)C2` (relative stereo; 13) [listing 1 of 2 here], the Intrinsic activity in data set [7] was 1.
`CCCc1cnc(N2CCC(Oc3ccn(-c4ccc([S+](C)[O-])cc4)c(=O)c3)CC2)nc1` (racemic) displayed an Intrinsic activity in data set [7] of 0.9. For the same compound, it took 0.041 µM to reach a half-maximal effect in data set [6] (EC50).
Regarding `CS(=O)(=O)c1ccc(-n2cc(Cl)c(OC3CCN(c4ncc(C(F)(F)F)cn4)CC3)cc2=O)cc1`, the half-life in data set [1] is over 72 min; in data set [3] it was 16 min; in data set [4] it was over 120 min. In addition, the values for the solubility in data set [2] and in data set [5] were under 1 µg/mL and 3 µg/mL (≈ 5.67 µM), respectively. Besides, the response in data set [6] was half-maximal at 0.013 µM (EC50).
`CC(C)OC(=O)N1CCC(COc2ccn(-c3ccc(S(C)(=O)=O)cc3)c(=O)c2)C1` (stereo not given): the EC50 in data set [6] is over 10 µM.
Turning to `CCCc1cnc(N2CCC(Oc3ccn(-c4ccc(S(C)(=O)=O)cc4)c(=O)c3)CC2)nc1`, in data set [7], the Intrinsic activity worked out at 0.8. A half-maximal response in data set [6] (EC50) required 0.016 µM.
`CC(C)OC(=O)N1CCC(Oc2ccn(-c3ccc(S(C)(=O)=O)cc3)c(=O)c2)CC1` registered an Intrinsic activity in data set [7] of 0.8. Moreover, in data set [6], the EC50 was 0.133 µM.
In turn, `CCCc1cnc(N2CCC(Oc3cc(=O)n(-c4ccc(S(C)(=O)=O)cc4)cc3-c3ccccc3)CC2)nc1` came in with an EC50 in data set [6] of over 10 µM.
Take `CCCc1cnc(N2CCC(Oc3ccn(-c4ccc(NC(=O)C(C)(C)C)cc4)c(=O)c3)CC2)nc1`: the Intrinsic activity in data set [7] stood at 0.8. In addition, a half-maximal effect in data set [6] (EC50) was put at 0.037 µM.
For `CCc1ccc(N2CCC(Oc3ccn(-c4ccc(S(C)(=O)=O)cc4)c(=O)c3)CC2)nc1`, the Intrinsic activity in data set [7] was found to be 0.6. Moreover, the EC50 in data set [6] was 0.104 µM.
For `CC(C)(C)OC(=O)N1CCC(Oc2ccn(-c3ccc(S(C)(=O)=O)cc3)c(=O)c2)CC1` the same measures were 0.8 and 0.183 µM.
Taken in the same sequence, the figures for `CS(=O)(=O)c1ccc(-n2ccc(OC3CCN(C(=O)Oc4ccccc4)CC3)cc2=O)cc1` were 0.9 and 0.13 µM.
For `CCCc1cnc(N2CCC(Oc3ccn(-c4ccc(-n5cncn5)cc4)c(=O)c3)CC2)nc1` the same measures were 0.8 and 0.063 µM.
With `CCCc1cnc(N2CCC(Oc3cc(=O)n(-c4ccc(S(C)(=O)=O)cc4)cc3C)CC2)nc1`, the Intrinsic activity in data set [7] came out at 0.9. In addition, in data set [6], the EC50 came out at 0.031 µM.
Taken in the same sequence, the figures for `CCCc1cnc(N2CCC(Oc3ccn(-c4ccc(N5CCCC5=O)cc4)c(=O)c3)CC2)nc1` were 0.8 and 0.032 µM.
For `CCc1cnc(N2CCC(Oc3ccn(-c4ccc(S(C)(=O)=O)cc4)c(=O)c3)CC2)nc1` the same measures were 0.8 and 0.057 µM.
Taken in the same sequence, the figures for `CCCc1cnc(N2CCC(Oc3ccn(-c4ccc(C#N)cc4)c(=O)c3)CC2)nc1` were 0.8 and 0.011 µM.
The compound `COc1cnc(N2CCC(Oc3ccn(-c4ccc(S(C)(=O)=O)cc4)c(=O)c3)CC2)nc1` came in with an Intrinsic activity in data set [7] of 1. In data set [6], the EC50 came out at 0.117 µM.
Taken in the same sequence, the figures for `CCCc1cnc(N2CCC(Oc3ccn(-c4ccc(S(C)(=O)=O)c(F)c4)c(=O)c3)CC2)nc1` were 0.8 and 0.009 µM.
In data set [6], `CCCc1cnc(N2CCC(Oc3ccn(-c4ccc(S(C)(=O)=O)cc4)c(=O)c3Cl)CC2)nc1` returned an EC50 of over 10 µM.
Still for that read-out and setting: to `CC(C)OC(=O)N1CC(Oc2ccn(-c3ccc(S(C)(=O)=O)cc3)c(=O)c2)C1` belongs over 10 µM.
As to `CS(=O)(=O)c1ccc(-n2cc(Cl)c(OC3CCN(c4ncc(C(F)(F)F)cn4)CC3)cc2=O)cc1F`, the half-life is over 48 min in data set [1], 27 min in data set [3] and over 120 min in data set [4]. For the same compound, the solubility – broadly, the concentration that dissolves in the medium under given conditions – in data set [2] was under 1 µg/mL; in data set [5], 31 µg/mL (≈ 56.7 µM). This compound also displayed an EC50 in data set [6] of 0.016 µM.
Compound `CS(=O)(=O)c1ccc(-n2ccc(OC3CCN(c4ncc(C5CC5)cn4)CC3)cc2=O)cc1` showed an Intrinsic activity in data set [7] of 0.9. In data set [6], this compound displayed an EC50 of 0.023 µM.
In data set [6], `CC(C)OC(=O)N1CC(COc2ccn(-c3ccc(S(C)(=O)=O)cc3)c(=O)c2)C1` displayed an EC50 of over 10 µM.
The compound `Cc1ccnc(N2CCC(Oc3ccn(-c4ccc(S(C)(=O)=O)cc4)c(=O)c3)CC2)n1` showed an Intrinsic activity in data set [7] of 0.3. In data set [6], this compound gave an EC50 of 0.724 µM.
On to `CCCc1cnc(N2CCC(Oc3cc(=O)n(-c4ccc(S(C)(=O)=O)cc4)cc3Cl)CC2)nc1`, for which the Intrinsic activity in data set [7] stood at 0.8.
In data set [7], `CC(C)OC(=O)N1CCC(COc2ccn(-c3ccc(S(C)(=O)=O)cc3)c(=O)c2)CC1` returned an Intrinsic activity of 0.7. Besides, the EC50 in data set [6] is 1.7 µM.
In the case of `CC(C)OC(=O)N1[C@@H]2CC[C@@H]1CC(Oc1ccn(-c3ccc(S(C)(=O)=O)cc3)c(=O)c1)C2` (relative stereo; 13) [listing 2 of 2 here], the EC50 in data set [6] is 0.87 µM.
In turn, `CC(C)OC(=O)N1[C@@H]2CC[C@@H]1CC(Oc1ccn(-c3ccc(S(C)(=O)=O)cc3)c(=O)c1)C2` (relative stereo; 14) came in with an Intrinsic activity in data set [7] of 0.7.
`CCCc1cnc(N2CCC(Oc3cc(=O)n(-c4ccc(S(C)(=O)=O)cc4)cc3C#N)CC2)nc1` gave an Intrinsic activity in data set [7] of 0.8. The compound also showed an EC50 in data set [6] of 0.012 µM.
`CCCc1cnc(N2CCC(Oc3cc(C)n(-c4ccc(S(C)(=O)=O)cc4)c(=O)c3)CC2)nc1`: the EC50 in data set [6] is over 10 µM.
In turn, `CC(C)OC(=O)N1CCC(Oc2ccn(-c3ccc(S(C)(=O)=O)cc3)c(=O)c2)C1` (stereo not given) registered an EC50 in data set [6] of over 10 µM.
Turning to `CC(C)OC(=O)N1CCCC(Oc2ccn(-c3ccc(S(C)(=O)=O)cc3)c(=O)c2)CC1` (stereo not given), in data set [7], the Intrinsic activity was determined as 0.7. Besides, it took 1.09 µM to reach a half-maximal effect in data set [6] (EC50).
Regarding `CS(=O)(=O)c1ccc(-n2cc(Cl)c(OC3CCN(c4ncc(C(F)(F)F)cn4)CC3)cc2=O)c(F)c1`, the half-life in data set [1] was over 72 min; in data set [3], 30 min; in data set [4], over 120 min. In addition, the solubility is 1 µg/mL (≈ 1.83 µM) in data set [2] and 122 µg/mL (≈ 223 µM) in data set [5]. The compound also came in with an EC50 in data set [6] of 0.012 µM.
Take `CS(=O)(=O)c1ccc(-n2cc(Cl)c(OC3CCN(c4ncc(Cl)cn4)CC3)cc2=O)cc1F`: the values for the half-life in data set [1], in data set [3] and in data set [4] were 12 min, 18 min and 39 min, respectively. The values for the solubility in data set [2] and in data set [5] were 3 µg/mL (≈ 5.84 µM) and 199 µg/mL (≈ 388 µM), respectively. Moreover, a half-maximal effect in data set [6] (EC50) was put at 0.013 µM.
In data set [7], `CCCc1cnc(N2CCC(Oc3ccn(-c4ccc(-n5ccnc5)cc4)c(=O)c3)CC2)nc1` yielded an Intrinsic activity of 0.8.
